Results taken from paper PMC11864979, “First-in-class ultralong-target-residence-time p38α inhibitors as a mitosis-targeted therapy for colorectal cancer” (Nature Cancer, 2025).
Like-named read-outs stand apart in the source and are kept apart here.

Columns and labels:
Assay in all cases: selectivity profiling in a panel of 340 wild-type kinases (Reaction Biology Europe)
Format in all cases: binding
340 wild-type kinases [1] = molecular target: T1, 340 wild-type kinases (Homo sapiens, UniProt O75116)
T1 construct: purchased Reaction Biology Europe
T1 sequence (O75116 whole entry): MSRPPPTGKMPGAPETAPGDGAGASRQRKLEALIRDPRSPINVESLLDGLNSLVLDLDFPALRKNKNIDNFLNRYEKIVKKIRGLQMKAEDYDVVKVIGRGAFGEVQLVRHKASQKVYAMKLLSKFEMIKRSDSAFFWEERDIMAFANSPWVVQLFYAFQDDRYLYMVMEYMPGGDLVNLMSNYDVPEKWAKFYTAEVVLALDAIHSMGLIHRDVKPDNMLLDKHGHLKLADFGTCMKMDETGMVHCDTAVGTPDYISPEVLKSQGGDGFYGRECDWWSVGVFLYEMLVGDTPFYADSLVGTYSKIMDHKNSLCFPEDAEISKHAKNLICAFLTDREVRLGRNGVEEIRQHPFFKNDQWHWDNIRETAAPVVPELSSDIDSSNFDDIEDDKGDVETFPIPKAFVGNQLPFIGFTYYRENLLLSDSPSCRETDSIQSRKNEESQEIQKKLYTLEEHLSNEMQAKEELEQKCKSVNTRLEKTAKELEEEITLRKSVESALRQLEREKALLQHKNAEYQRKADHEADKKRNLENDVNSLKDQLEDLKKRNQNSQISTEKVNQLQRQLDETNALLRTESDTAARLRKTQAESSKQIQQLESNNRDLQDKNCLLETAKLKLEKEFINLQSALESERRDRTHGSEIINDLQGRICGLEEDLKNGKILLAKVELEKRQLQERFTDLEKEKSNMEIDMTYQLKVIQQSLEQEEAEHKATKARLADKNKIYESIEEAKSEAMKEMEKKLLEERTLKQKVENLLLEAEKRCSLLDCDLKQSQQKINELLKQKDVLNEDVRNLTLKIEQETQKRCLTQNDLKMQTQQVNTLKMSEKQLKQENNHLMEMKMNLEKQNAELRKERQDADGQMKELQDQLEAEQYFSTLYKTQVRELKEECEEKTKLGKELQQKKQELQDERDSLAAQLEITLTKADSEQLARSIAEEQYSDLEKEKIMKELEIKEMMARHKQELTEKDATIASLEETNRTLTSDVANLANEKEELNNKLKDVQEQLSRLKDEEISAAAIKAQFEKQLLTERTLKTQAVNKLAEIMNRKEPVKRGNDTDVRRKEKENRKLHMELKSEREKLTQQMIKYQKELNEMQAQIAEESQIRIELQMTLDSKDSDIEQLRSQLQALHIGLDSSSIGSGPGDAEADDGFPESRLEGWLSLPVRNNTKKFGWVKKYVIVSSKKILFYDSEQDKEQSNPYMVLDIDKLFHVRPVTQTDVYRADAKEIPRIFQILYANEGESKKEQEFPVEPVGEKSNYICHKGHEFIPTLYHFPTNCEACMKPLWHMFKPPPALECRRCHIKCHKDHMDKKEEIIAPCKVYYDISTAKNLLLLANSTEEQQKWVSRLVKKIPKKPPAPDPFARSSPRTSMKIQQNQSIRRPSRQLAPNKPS

340 wild-type kinases [2] = molecular target: T2, 340 wild-type kinases (Homo sapiens, UniProt P05771)
T2 construct: purchased Reaction Biology Europe

340 wild-type kinases [3] = molecular target: T3, 340 wild-type kinases (Homo sapiens, UniProt P78368)
T3 construct: purchased Reaction Biology Europe
T3 sequence (P78368 whole entry): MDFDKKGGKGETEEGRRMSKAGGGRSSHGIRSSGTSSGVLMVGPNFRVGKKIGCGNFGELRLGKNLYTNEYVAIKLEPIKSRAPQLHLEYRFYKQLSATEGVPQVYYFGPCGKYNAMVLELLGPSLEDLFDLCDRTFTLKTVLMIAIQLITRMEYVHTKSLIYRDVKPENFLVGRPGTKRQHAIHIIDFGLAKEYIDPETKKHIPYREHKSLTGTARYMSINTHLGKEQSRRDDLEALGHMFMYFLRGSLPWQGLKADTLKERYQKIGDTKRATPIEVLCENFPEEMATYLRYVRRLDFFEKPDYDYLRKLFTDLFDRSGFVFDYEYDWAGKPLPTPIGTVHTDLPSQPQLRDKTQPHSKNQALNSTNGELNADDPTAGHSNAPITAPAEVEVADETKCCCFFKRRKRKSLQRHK

340 wild-type kinases [4] = molecular target: T4, 340 wild-type kinases (Homo sapiens, UniProt Q06418)
T4 construct: purchased Reaction Biology Europe
T4 sequence (Q06418 41-890): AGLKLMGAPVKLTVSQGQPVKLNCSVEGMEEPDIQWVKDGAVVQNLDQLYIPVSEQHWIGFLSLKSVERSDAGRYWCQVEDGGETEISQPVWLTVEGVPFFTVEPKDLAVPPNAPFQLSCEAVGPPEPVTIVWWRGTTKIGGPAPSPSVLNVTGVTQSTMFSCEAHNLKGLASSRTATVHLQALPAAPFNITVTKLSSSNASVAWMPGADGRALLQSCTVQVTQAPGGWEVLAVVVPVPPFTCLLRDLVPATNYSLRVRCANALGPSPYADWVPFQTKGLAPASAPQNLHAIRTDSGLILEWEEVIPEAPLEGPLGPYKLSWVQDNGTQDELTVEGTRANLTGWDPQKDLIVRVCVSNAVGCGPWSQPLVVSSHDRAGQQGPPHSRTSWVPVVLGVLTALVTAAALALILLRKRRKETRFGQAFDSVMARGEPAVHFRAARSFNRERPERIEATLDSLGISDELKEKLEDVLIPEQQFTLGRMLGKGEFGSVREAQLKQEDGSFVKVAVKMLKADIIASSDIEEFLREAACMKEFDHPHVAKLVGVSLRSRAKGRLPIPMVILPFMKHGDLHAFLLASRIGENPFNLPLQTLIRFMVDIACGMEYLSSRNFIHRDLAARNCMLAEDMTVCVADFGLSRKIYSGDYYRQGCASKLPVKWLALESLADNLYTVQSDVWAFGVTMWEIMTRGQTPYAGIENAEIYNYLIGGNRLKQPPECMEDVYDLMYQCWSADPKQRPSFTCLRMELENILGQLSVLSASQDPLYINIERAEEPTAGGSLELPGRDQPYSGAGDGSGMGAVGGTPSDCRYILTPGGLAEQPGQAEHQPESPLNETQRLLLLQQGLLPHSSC

340 wild-type kinases [5] = molecular target: T5, 340 wild-type kinases (Homo sapiens, UniProt Q15349)
T5 construct: purchased Reaction Biology Europe
T5 sequence (Q15349 whole entry): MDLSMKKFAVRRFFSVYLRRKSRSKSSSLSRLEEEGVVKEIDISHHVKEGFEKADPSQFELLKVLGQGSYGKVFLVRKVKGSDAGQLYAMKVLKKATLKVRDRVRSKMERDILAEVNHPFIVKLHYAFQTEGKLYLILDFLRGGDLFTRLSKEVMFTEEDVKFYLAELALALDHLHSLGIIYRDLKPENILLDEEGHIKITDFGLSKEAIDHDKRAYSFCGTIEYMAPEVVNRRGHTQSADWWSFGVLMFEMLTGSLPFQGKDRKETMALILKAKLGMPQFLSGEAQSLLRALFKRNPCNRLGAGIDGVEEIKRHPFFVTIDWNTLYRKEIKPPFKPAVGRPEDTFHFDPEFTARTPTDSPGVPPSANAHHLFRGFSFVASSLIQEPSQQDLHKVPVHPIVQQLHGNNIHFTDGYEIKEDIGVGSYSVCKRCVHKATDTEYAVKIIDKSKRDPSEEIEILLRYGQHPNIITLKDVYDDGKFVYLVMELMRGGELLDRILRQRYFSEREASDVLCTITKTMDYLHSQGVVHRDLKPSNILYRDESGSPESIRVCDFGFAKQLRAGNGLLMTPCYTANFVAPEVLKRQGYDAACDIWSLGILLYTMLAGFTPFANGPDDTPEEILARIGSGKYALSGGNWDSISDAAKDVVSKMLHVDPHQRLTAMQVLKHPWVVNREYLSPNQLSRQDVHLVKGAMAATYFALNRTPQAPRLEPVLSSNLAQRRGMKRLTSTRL

340 wild-type kinases [6] = molecular target: T6, 340 wild-type kinases (Homo sapiens, UniProt Q96GX5)
T6 construct: purchased Reaction Biology Europe
T6 sequence (Q96GX5 1-879): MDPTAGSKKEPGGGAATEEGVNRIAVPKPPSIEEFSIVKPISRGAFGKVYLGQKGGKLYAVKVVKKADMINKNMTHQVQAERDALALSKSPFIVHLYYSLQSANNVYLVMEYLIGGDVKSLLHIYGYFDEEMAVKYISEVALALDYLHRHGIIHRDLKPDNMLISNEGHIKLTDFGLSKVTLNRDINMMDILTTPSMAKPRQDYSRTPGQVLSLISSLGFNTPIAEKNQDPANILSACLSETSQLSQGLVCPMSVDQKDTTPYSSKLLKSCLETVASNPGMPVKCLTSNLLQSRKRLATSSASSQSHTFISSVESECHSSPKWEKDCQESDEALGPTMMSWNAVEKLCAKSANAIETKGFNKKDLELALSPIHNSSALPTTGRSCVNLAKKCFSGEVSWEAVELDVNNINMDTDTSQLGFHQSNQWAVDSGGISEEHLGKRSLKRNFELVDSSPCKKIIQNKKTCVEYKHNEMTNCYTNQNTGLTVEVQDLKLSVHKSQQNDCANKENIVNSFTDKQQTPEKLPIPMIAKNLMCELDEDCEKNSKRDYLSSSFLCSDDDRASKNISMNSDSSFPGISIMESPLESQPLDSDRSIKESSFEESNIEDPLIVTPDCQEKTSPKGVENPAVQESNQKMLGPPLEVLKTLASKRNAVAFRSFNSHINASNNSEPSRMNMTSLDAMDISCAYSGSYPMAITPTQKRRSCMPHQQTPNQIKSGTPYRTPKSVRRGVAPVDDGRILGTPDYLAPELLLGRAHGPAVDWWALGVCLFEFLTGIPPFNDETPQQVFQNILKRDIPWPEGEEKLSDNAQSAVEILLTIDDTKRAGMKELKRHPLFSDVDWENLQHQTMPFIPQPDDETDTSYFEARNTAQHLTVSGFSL

340 wild-type kinases [7] = molecular target: T7, 340 wild-type kinases (Homo sapiens, UniProt Q96PF2)
T7 construct: purchased Reaction Biology Europe
T7 sequence (Q96PF2 1-358): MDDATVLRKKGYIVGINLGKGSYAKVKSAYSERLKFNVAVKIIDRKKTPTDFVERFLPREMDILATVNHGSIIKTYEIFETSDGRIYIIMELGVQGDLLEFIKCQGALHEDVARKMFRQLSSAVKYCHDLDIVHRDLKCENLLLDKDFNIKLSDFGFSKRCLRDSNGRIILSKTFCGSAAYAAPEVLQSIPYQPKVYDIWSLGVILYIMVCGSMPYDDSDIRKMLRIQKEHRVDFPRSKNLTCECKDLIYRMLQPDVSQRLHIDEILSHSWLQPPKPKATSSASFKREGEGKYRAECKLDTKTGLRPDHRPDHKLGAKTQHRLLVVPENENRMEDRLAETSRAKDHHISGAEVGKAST

CNC(=O)c1ccc2c(c1)C(=O)c1ccc(Nc3ccc(F)c(NC(=O)C4CC4)c3)cc1CC2 [Compound 2015] showed a remaining activity at 0.2 µM (340 wild-type kinases [1]; 0.2 µM 2015, read-out: ROCK2 residual activity) of 89%, a remaining activity at 1 µM (340 wild-type kinases [1]; 1 µM 2015, read-out: ROCK2 residual activity) of 86.3% and a remaining activity at 0.2 µM (340 wild-type kinases [1]; ROCK2, 0.2 µM, read-out: residual activity) of 89%. The remaining activity at 1 µM (340 wild-type kinases [1]; ROCK2, 1 µM, read-out: residual activity) was 86.3%, the remaining activity at 0.2 µM (340 wild-type kinases [2]; 0.2 µM 2015, read-out: PKCbeta1 residual activity) was 109% and the remaining activity at 1 µM (340 wild-type kinases [2]; 1 µM 2015, read-out: PKCbeta1 residual activity) was 100%. The remaining activity at 0.2 µM (340 wild-type kinases [2]; PKCbeta1, 0.2 µM, read-out: residual activity) was 109%, the remaining activity at 1 µM (340 wild-type kinases [2]; PKCbeta1, 1 µM, read-out: residual activity) was 100% and the remaining activity at 0.2 µM (340 wild-type kinases [2]; PKCbeta2, 0.2 µM, read-out: residual activity) was 103%. The remaining activity at 1 µM (340 wild-type kinases [2]; PKCbeta2, 1 µM, read-out: residual activity) was 109%, the remaining activity at 0.2 µM (340 wild-type kinases [3]; 0.2 µM 2015, read-out: CK1gamma2 residual activity) was 111% and the remaining activity at 1 µM (340 wild-type kinases [3]; 1 µM 2015, read-out: CK1gamma2 residual activity) was 113%. The remaining activity at 0.2 µM (340 wild-type kinases [3]; CK1gamma2, 0.2 µM, read-out: residual activity) was 111%, the remaining activity at 1 µM (340 wild-type kinases [3]; CK1gamma2, 1 µM, read-out: residual activity) was 113% and the remaining activity at 0.2 µM (340 wild-type kinases [4]; 0.2 µM 2015, read-out: TYRO3 residual activity) was 93.9%. It also gave a remaining activity at 1 µM (340 wild-type kinases [4]; 1 µM 2015, read-out: TYRO3 residual activity) of 86.6%, a remaining activity at 0.2 µM (340 wild-type kinases [4]; TYRO3, 0.2 µM, read-out: residual activity) of 94% and a remaining activity at 1 µM (340 wild-type kinases [4]; TYRO3, 1 µM, read-out: residual activity) of 86.6%. The remaining activity at 0.2 µM (340 wild-type kinases [5]; 0.2 µM 2015, read-out: RPS6KA2 residual activity) was 84.7%, the remaining activity at 1 µM (340 wild-type kinases [5]; 1 µM 2015, read-out: RPS6KA2 residual activity) was 91% and the remaining activity at 0.2 µM (340 wild-type kinases [5]; RPS6KA2, 0.2 µM, read-out: residual activity) was 84.7%. For the same molecule, the remaining activity at 1 µM (340 wild-type kinases [5]; RPS6KA2, 1 µM, read-out: residual activity) was 91%, the remaining activity at 0.2 µM (340 wild-type kinases [6]; 0.2 µM 2015, read-out: MASTL residual activity) was 101% and the remaining activity at 1 µM (340 wild-type kinases [6]; 1 µM 2015, read-out: MASTL residual activity) was 93.3%. The remaining activity at 0.2 µM (340 wild-type kinases [6]; MASTL, 0.2 µM, read-out: residual activity) was 101%, the remaining activity at 1 µM (340 wild-type kinases [6]; MASTL, 1 µM, read-out: residual activity) was 93.3% and the remaining activity at 0.2 µM (340 wild-type kinases [7]; 0.2 µM 2015, read-out: TSK2 residual activity) was 104%. For the same molecule, the remaining activity at 1 µM (340 wild-type kinases [7]; 1 µM 2015, read-out: TSK2 residual activity) was 106%, the remaining activity at 0.2 µM (340 wild-type kinases [7]; TSK2, 0.2 µM, read-out: residual activity) was 104% and the remaining activity at 1 µM (340 wild-type kinases [7]; TSK2, 1 µM, read-out: residual activity) was 106%.
